Data: US9802921B2, “Fluoromethyl-substituted pyrrole carboxamides iv” (Grünenthal GmbH, priority 2013, dated 2017)

Biological target: T1, Human CaV2.2 channels (Homo sapiens, UniProt Q00975)
T1 construct: expressed in transfected cells
Assay: Fluorescent assay for CaV2.2 channels using potassium depolarization to induce channel opening (FLIPR, Fluo 4)
Format: cell-based
Conditions: read-out: Activity Category: %-Inhib (CaV2.2) @3 μM @30 mM KCl; 3 μM test compound; 30 mM KCl as printed; HEK293 cells stably expressing human CaV2.2
Text: In the process, the Ca^2+ influx is quantified in the FLIPR assay with the aid of a Ca^2+-sensitive dye (type Fluo-4, Molecular Probes Europe BV, Leiden, the Netherlands) in a fluorescent imaging plate reader (FLIPR 3, Molecular Devices, Sunnyvale, USA), as described hereinafter.
Human CaV2.2 channels were stably expressed in HEK293 cells together with alpha2-delta and beta subunits of voltage gated calcium channels. In addition, an inwardly rectifying potassium channel (Kir2.3) was stably expressed in these cells to augment control of the cell membrane potential by the concentration of extracellular potassium ions. Raise of the extracellular potassium concentration leads to depolarization of the membrane potential and thus regulates the voltage dependent state of CaV2.2 channels. For preparation, cells were seeded in black poly-D-lysine coated 96-well plates (Becton Dickinson, Biocoat 4640) in 100 μL medium [500 mL DMEM/F-12 plus Glutamax (Invitrogen 31331-093) plus 5.5 mL MEM NEAA 100× (Invitrogen 11140-035) plus 50 mL FBS decomplemented (Invitrogen 10270-106) plus 200 μg/mL Geneticin (Invitrogen 10131-027) plus 50 μg/mL Hygromycin B (Invitrogen 10687-010) plus 2 μg/mL Blasticidin (anti-bl5b Invivo-Gen) plus 0.2 μg/mL Puromycin (A 11138-03)] at a cell density of 30.000 cells per well. Plates were incubated at 37° C. (5% CO2) for 20 to 23 h. On the day of experiment medium was discarded and cells were loaded with Fluo 4 by addition of 100 μL of basic assay buffer (10 mM HEPES, 1 mM KCl, 149 mM NaCl, 0.8 mM CaCl2, 1.7 mM MgCl2, 10 mM Glucose, 0.1% BSA. pH 7.4) containing 2 μM Fluo 4 (Molecular Probes; F-14201), 0.01% pluronic acid (Molecular Probes; P-6866) and 2.5 mM probenecid (Molecular Probes; P36400). Cells were incubated in the dark at 25° C. for 60 min. Then dye containing buffer was discarded and 100 μL basic (1 mM KCl) or alternative (30 mM KCl) assay buffer was added. The alternative assay buffer contained altered concentrations of KCl (30 mM) and NaCl (120 mM) and was used in order to promote the inactivated channel state. After that 25 μL of basic or alternative assay buffer with or without test compound were added and cells were incubated again in the dark at 25° C. for 15 min. Fluorescence intensity was measured on a FLIPR 3 instrument (Molecular Devices Corp., Sunnyvale, Calif.) with excitation at 480 nm and emission at 535 nm. After continuously reading fluorescence for 30 sec, 50 μL of basic assay buffer containing 210 mM KCl (NaCl omitted) were added for depolarization. Peak fluorescent signal intensity was determined and the amplitude of the peak signal, normalized to base line, was used to measure channel inhibition by test compounds.

T1 sequence (Q00975 whole entry): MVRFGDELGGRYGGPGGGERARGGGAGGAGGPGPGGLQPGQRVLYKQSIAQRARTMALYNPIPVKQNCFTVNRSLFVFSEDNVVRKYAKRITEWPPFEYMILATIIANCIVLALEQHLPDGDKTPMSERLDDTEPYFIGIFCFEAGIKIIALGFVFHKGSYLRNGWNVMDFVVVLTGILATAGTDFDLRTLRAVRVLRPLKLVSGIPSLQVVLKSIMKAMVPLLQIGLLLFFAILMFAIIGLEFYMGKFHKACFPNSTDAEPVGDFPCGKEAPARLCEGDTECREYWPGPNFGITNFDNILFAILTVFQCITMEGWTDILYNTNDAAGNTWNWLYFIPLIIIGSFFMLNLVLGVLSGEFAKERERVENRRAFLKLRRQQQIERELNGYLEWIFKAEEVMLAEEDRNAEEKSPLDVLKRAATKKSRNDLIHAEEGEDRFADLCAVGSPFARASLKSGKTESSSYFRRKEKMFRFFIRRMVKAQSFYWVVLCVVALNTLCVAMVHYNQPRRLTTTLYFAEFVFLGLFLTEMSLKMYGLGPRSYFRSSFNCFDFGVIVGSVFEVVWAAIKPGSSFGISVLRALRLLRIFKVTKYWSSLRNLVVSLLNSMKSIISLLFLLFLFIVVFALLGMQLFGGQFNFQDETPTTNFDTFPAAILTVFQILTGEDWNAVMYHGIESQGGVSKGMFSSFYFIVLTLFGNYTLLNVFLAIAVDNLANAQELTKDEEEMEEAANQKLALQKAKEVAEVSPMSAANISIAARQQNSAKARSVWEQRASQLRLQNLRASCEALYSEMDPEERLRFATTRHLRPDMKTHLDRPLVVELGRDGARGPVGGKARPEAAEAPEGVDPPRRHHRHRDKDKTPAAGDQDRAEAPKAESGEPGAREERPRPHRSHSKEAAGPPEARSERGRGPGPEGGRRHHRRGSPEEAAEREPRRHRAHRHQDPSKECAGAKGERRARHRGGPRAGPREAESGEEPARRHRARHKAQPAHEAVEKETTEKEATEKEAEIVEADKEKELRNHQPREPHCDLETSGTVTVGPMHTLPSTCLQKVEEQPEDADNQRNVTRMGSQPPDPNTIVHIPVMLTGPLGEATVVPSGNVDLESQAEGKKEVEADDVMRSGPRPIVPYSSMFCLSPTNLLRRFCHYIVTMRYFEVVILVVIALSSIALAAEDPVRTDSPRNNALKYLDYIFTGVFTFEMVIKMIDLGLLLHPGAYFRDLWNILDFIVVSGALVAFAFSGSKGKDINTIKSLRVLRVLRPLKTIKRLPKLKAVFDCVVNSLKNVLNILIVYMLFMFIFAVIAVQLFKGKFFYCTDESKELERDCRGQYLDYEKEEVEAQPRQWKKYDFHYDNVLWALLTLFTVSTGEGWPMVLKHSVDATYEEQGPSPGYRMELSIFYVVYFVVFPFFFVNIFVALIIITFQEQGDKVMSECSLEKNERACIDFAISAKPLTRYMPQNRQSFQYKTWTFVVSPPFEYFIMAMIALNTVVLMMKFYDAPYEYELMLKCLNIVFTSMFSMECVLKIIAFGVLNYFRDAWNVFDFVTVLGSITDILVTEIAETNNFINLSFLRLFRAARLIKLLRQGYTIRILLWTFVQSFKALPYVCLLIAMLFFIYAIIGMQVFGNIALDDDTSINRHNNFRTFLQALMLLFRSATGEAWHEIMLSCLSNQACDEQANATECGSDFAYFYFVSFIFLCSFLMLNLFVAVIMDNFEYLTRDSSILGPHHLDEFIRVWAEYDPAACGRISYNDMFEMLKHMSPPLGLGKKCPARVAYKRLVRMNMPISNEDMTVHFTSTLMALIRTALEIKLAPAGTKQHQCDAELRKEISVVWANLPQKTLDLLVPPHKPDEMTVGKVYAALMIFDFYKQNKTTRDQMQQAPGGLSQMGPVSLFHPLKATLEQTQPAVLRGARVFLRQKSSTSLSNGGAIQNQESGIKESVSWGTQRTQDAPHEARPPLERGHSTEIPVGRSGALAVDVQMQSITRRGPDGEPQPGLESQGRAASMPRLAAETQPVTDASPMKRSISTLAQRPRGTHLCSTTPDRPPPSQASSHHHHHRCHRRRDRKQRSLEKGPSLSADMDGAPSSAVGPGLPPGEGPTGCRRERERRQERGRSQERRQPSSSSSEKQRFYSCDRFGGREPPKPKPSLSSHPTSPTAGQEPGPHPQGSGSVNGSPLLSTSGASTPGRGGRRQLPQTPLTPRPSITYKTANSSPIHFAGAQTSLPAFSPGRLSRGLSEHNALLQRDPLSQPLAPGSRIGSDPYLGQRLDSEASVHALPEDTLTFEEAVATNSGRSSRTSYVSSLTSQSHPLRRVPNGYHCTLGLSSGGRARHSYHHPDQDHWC
T1 sequence (P54289 25-1103, further chain): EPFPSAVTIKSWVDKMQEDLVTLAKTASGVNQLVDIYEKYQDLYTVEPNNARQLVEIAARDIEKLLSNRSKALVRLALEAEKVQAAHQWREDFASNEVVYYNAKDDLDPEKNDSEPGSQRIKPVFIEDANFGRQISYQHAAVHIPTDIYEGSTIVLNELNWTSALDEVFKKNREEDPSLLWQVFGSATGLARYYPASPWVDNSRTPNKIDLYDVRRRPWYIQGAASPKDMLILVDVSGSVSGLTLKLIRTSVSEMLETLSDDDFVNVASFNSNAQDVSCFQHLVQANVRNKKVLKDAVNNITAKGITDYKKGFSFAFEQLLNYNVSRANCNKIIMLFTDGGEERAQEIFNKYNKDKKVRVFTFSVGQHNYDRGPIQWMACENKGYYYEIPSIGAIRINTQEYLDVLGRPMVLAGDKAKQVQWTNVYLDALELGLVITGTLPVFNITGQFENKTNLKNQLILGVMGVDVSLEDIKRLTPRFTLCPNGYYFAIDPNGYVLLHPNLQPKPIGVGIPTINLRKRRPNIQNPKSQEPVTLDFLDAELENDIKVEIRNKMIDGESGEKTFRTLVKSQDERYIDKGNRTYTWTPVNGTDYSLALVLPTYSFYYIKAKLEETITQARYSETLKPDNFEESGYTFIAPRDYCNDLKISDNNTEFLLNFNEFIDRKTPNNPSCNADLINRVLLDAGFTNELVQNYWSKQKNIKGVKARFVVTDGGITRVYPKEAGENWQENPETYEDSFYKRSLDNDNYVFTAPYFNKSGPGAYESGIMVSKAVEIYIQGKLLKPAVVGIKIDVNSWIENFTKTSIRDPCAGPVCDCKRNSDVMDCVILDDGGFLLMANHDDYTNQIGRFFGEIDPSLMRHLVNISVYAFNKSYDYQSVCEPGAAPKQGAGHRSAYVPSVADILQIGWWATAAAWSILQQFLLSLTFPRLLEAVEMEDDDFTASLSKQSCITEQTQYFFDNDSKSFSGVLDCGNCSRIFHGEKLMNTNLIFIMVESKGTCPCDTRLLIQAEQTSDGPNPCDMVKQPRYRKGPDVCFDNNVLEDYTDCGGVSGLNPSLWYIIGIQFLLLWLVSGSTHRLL
T1 sequence (P54284 whole entry, further chain): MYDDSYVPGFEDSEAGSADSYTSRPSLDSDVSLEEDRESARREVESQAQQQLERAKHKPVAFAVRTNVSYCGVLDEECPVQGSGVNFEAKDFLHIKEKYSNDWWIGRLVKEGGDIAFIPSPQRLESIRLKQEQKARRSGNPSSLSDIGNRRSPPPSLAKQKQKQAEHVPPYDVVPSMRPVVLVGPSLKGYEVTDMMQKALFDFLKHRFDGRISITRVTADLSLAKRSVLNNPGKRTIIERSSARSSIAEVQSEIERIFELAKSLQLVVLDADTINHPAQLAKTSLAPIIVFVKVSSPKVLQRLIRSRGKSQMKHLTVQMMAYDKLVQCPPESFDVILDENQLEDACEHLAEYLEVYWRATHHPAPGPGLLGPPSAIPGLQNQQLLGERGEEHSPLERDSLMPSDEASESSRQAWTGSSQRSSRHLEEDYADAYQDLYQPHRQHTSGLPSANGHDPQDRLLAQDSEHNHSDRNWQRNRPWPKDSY

Cc1c(-c2ccc(Cl)cc2)c(C(=O)N2CCS(=O)(=O)CC2)n(Cc2cn(C)cn2)c1C(F)(F)F [Example 022, [3-(4-Chlorophenyl)-4-methyl-1-[(1-methyl-1H-imidazol-4-yl)-methyl]-5-(trifluoromethyl)-1H-pyrrol-2-yl]-(1,1-dioxo-[1,4]thiazinan-4-yl)-methanone]
inhibition at 3 µM: 40 to 75%

CN(CC(C)(C)C)C(=O)c1c(-c2ccc(Cl)cc2)cc(C(F)(F)F)n1Cc1ccnn1C [Example 008, 3-(4-Chlorophenyl)-N-(2,2-dimethyl-propyl)-N-methyl-1-[(2-methyl-2H-pyrazol-3-yl)-methyl]-5-(trifluoromethyl)-1H-pyrrole-2-carboxylic acid amide]
inhibition at 3 µM: 75 to 95%

Cc1c(-c2ccc(Cl)cc2F)c(C(=O)N2CCOCC2)n(Cc2ncccn2)c1C(F)(F)F [Example 062, [3-(4-Chloro-2-fluoro-phenyl)-4-methyl-1-(pyrimidin-2-yl-methyl)-5-(trifluoromethyl)-1H-pyrrol-2-yl]-morpholin-4-yl-methanone]
inhibition at 3 µM: > 95%

Cc1c(-c2ccc(Cl)cc2)c(C(=O)N2CCOCC2)n(Cc2nncs2)c1C(F)(F)F [Example 024, [3-(4-Chlorophenyl)-4-methyl-1-([1,3,4]thiadiazol-2-yl-methyl)-5-(trifluoromethyl)-1H-pyrrol-2-yl]-morpholin-4-yl-methanone]
inhibition at 3 µM: 40 to 75%

Cc1noc(Cn2c(C(=O)N3CCOCC3)c(-c3ccc(Cl)cc3)c(C)c2C(F)(F)F)n1 [Example 018, [3-(4-Chlorophenyl)-4-methyl-1-[(3-methyl-[1,2,4]oxadiazol-5-yl)-methyl]-5-(trifluoromethyl)-1H-pyrrol-2-yl]-morpholin-4-yl-methanone]
inhibition at 3 µM: > 95%

Cc1c(-c2ccc(Cl)cc2)c(C(=O)NC2CC2)n(Cc2ncccn2)c1C(F)(F)F [Example 048, 3-(4-Chlorophenyl)-N-cyclopropyl-4-methyl-1-(pyrimidin-2-yl-methyl)-5-(trifluoromethyl)-1H-pyrrole-2-carboxylic acid amide]
inhibition at 3 µM: 40 to 75%

Cc1c(-c2ccc(Cl)cc2)c(C(=O)N(C)CCS(C)(=O)=O)n(Cc2cncn2C)c1C(F)(F)F [Example 003, 3-(4-Chlorophenyl)-N,4-dimethyl-1-[(3-methyl-3H-imidazole-4-yl)-methyl]-N-(2-methylsulfonyl-ethyl)-5-(trifluoromethyl)-1H-pyrrole-2-carboxylic acid amide]
inhibition at 3 µM: 40 to 75%

Cc1c(-c2ccc(Cl)cc2)c(C(=O)N2CCOCC2)n(CCn2ccccc2=O)c1C(F)(F)F [Example 055, 1-[2-[3-(4-Chlorophenyl)-4-methyl-2-(morpholine-4-carbonyl)-5-(trifluoromethyl)-1H-pyrrol-1-yl]-ethyl]-1H-pyridin-2-one]
inhibition at 3 µM: 40 to 75%

Cc1c(-c2ccc(Cl)cc2F)c(C(=O)N(C)C(C)C)n(Cc2ncccn2)c1C(F)(F)F [Example 064, 3-(4-Chloro-2-fluoro-phenyl)-N-isopropyl-N,4-dimethyl-1-(pyrimidin-2-yl-methyl)-5-(trifluoromethyl)-1H-pyrrole-2-carboxylic acid amide]
inhibition at 3 µM: > 95%

CN(CC(C)(C)C)C(=O)c1c(-c2ccc(Cl)cc2)cc(C(F)(F)F)n1Cc1nncn1C [Example 027, 3-(4-Chlorophenyl)-N-(2,2-dimethyl-propyl)-N-methyl-1-[(4-methyl-4H-[1,2,4]triazol-3-yl)-methyl]-5-(trifluoromethyl)-1H-pyrrole-2-carboxylic acid amide]
inhibition at 3 µM: 40 to 75%

CC1(C)CN(C(=O)c2c(-c3ccc(F)cc3)cc(C(F)(F)F)n2Cc2ncccn2)CCO1 [Example 031, (2,2-Dimethyl-morpholin-4-yl)-[3-(4-fluorophenyl)-1-(pyrimidin-2-yl-methyl)-5-(trifluoromethyl)-1H-pyrrol-2-yl]-methanone]
inhibition at 3 µM: 40 to 75%

Cc1c(-c2ccc(Cl)cc2)c(C(=O)N2CCOCC2)n(Cc2cncc(Cl)c2)c1C(F)(F)F [Example 028, [3-(4-Chlorophenyl)-1-[(5-chloro-pyridin-3-yl)-methyl]-4-methyl-5-(trifluoromethyl)-1H-pyrrol-2-yl]-morpholin-4-yl-methanone]
inhibition at 3 µM: > 95%

Cc1noc(Cn2c(C(F)(F)F)cc(-c3ccc(F)cc3)c2C(=O)N(C)C(C)C)n1 [Example 065, 3-(4-Fluorophenyl)-N-isopropyl-N-methyl-1-[(3-methyl-[1,2,4]oxadiazol-5-yl)-methyl]-5-(trifluoromethyl)-1H-pyrrole-2-carboxylic acid amide]
inhibition at 3 µM: 75 to 95%

Cc1c(-c2ccc(Cl)cc2F)c(C(=O)N(C)C2CC2)n(Cc2ncccn2)c1C(F)(F)F [Example 063, 3-(4-Chloro-2-fluoro-phenyl)-N-cyclopropyl-N,4-dimethyl-1-(pyrimidin-2-yl-methyl)-5-(trifluoromethyl)-1H-pyrrole-2-carboxylic acid amide]
inhibition at 3 µM: > 95%

Cc1noc(Cn2c(C(F)(F)F)cc(-c3ccc(Cl)cc3)c2C(=O)N(C)CC(C)(C)C)n1 [Example 011, 3-(4-Chlorophenyl)-N-(2,2-dimethyl-propyl)-N-methyl-1-[(3-methyl-[1,2,4]oxadiazol-5-yl)-methyl]-5-(trifluoromethyl)-1H-pyrrole-2-carboxylic acid amide]
inhibition at 3 µM: > 95%

CN(CC(C)(C)C)C(=O)c1c(-c2ccc(Cl)cc2)cc(C(F)(F)F)n1Cc1ccnc(C(F)(F)F)n1 [Example 033, 3-(4-Chlorophenyl)-N-(2,2-dimethyl-propyl)-N-methyl-5-(trifluoromethyl)-1-[[2-(trifluoromethyl)-pyrimidin-4-yl]-methyl]-1H-pyrrole-2-carboxylic acid amide]
inhibition at 3 µM: 40 to 75%

Cc1c(-c2ccc(Cl)cc2)c(C(=O)N2CCOCC2)n(Cc2cn(C)nn2)c1C(F)(F)F [Example 017, [3-(4-Chlorophenyl)-4-methyl-1-[(1-methyl-1H-[1,2,3]triazol-4-yl)-methyl]-5-(trifluoromethyl)-1H-pyrrol-2-yl]-morpholin-4-yl-methanone]
inhibition at 3 µM: 40 to 75%

Cc1c(-c2ccc(Cl)cc2)c(C(=O)N(C)C(C)C)n(Cc2nncs2)c1C(F)(F)F [Example 069, 3-(4-Chlorophenyl)-N-isopropyl-N,4-dimethyl-1-([1,3,4]thiadiazol-2-yl-methyl)-5-(trifluoromethyl)-1H-pyrrole-2-carboxylic acid amide]
inhibition at 3 µM: > 95%

Cc1c(-c2ccc(Cl)cc2)c(C(=O)N2CCOCC2)n(Cc2cncnc2)c1C(F)(F)F [Example 052, [3-(4-Chlorophenyl)-4-methyl-1-(pyrimidin-5-yl-methyl)-5-(trifluoromethyl)-1H-pyrrol-2-yl]-morpholin-4-yl-methanone]
inhibition at 3 µM: 40 to 75%

CN(CC(C)(C)C)C(=O)c1c(-c2ccc(Cl)cc2)cc(C(F)(F)F)n1Cc1cn(C)nn1 [Example 009, 3-(4-Chlorophenyl)-N-(2,2-dimethyl-propyl)-N-methyl-1-[(1-methyl-1H-[1,2,3]triazol-4-yl)-methyl]-5-(trifluoromethyl)-1H-pyrrole-2-carboxylic acid amide]
inhibition at 3 µM: 75 to 95%

Cc1c(-c2ccc(Cl)cc2)c(C(=O)N(C)CCS(C)(=O)=O)n(Cc2ccc(F)cn2)c1C(F)(F)F [Example 038, 3-(4-Chlorophenyl)-1-[(5-fluoro-pyridin-2-yl)-methyl]-N,4-dimethyl-N-(2-methylsulfonyl-ethyl)-5-(trifluoromethyl)-1H-pyrrole-2-carboxylic acid amide]
inhibition at 3 µM: > 95%

Cc1c(-c2ccc(Cl)cc2)c(C(=O)N2CC(F)(F)C2)n(-c2cnccn2)c1C(F)(F)F [Example 050, [3-(4-Chlorophenyl)-4-methyl-1-pyrazin-2-yl-5-(trifluoromethyl)-1H-pyrrol-2-yl]-(3,3-difluoro-azetidin-1-yl)-methanone]
inhibition at 3 µM: 75 to 95%

Cc1c(-c2ccc(Cl)cc2)c(C(=O)N2CCOCC2)n(Cc2ncccn2)c1C(F)(F)F [Example 047, [3-(4-Chlorophenyl)-4-methyl-1-(pyrimidin-2-yl-methyl)-5-(trifluoromethyl)-1H-pyrrol-2-yl]-morpholin-4-yl-methanone]
inhibition at 3 µM: > 95%
